Results published in ChEMBL document CHEMBL3124790, “Antibacterial properties and mode of action of new triaryl butene citrate compounds” (Eur J Med Chem, 2014).
In brackets after ≈: the same amount, converted by molar mass. Activity calls are given as the source filed them. No cut-off for these calls is given here.

Assays:
[1] = test system: Listeria monocytogenes; assay: Antimicrobial activity against Listeria monocytogenes assessed as induction of K+ efflux assessed per mg of cell dry weight at 2 ug/ml after 30 mins by spectrometry analysis; format: functional
[2] = test system: Listeria monocytogenes; assay: Antimicrobial activity against Listeria monocytogenes assessed as induction of Na+ efflux assessed per mg of cell dry weight at 2 ug/ml after 30 mins by spectrometry analysis; format: functional
[3] = test system: Listeria monocytogenes; assay: Antimicrobial activity against Listeria monocytogenes LSD 532 after 24 hrs by polystyrene micro-assay; format: functional; details: LSD 532, 24 h
[4] = test system: Pseudomonas aeruginosa; assay: Antimicrobial activity against Pseudomonas aeruginosa ATCC 15442 after 24 hrs by polystyrene micro-assay; format: functional; details: ATCC 15442, 24 h
[5] = test system: Staphylococcus aureus; assay: Antimicrobial activity against Staphylococcus aureus ATCC 6538 after 24 hrs by polystyrene micro-assay; format: functional; details: ATCC 6538, 24 h
[6] = test system: Enterococcus faecalis; assay: Antimicrobial activity against Enterococcus faecalis ATCC 27275 after 24 hrs by polystyrene micro-assay; format: functional; details: ATCC 27275, 24 h
[7] = test system: Escherichia coli; assay: Antimicrobial activity against Escherichia coli MC4100 assessed as blurred boundaries and highly altered cell walls at 5 times MIC after 5 mins by transmission electron microscopy analysis; format: functional, organism-based
[8] = test system: Listeria monocytogenes; assay: Antimicrobial activity against Listeria monocytogenes assessed as induction of Na+ efflux assessed per mg of cell dry weight at 5 times MIC after 30 mins by spectrometry analysis; format: functional
[9] = test system: Escherichia coli; assay: Antimicrobial activity against Escherichia coli MC4100 after 24 hrs by polystyrene micro-assay; format: functional; details: MC4100, 24 h
[10] = test system: Salmonella enterica subsp. enterica; assay: Antimicrobial activity against Salmonella enterica ATCC 14028 after 24 hrs by polystyrene micro-assay; format: functional; details: ATCC 14028, 24 h
[11] = test system: Escherichia coli; assay: Antimicrobial activity against Escherichia coli ATCC 11229 after 24 hrs by polystyrene micro-assay; format: functional; details: ATCC 11229, 24 h
[12] = test system: Listeria ivanovii; assay: Antimicrobial activity against Listeria ivanovii HPB28 after 24 hrs by polystyrene micro-assay; format: functional; details: HPB28, 24 h
[13] = test system: Escherichia coli; assay: Antimicrobial activity against Escherichia coli MC4100 assessed as damage of inner or outer membranes at 5 times MIC after 5 mins by transmission electron microscopy analysis; format: functional, organism-based
[14] = test system: Listeria ivanovii; assay: Antimicrobial activity against Listeria ivanovii HPB20 assessed as appearance of swollen and severely damaged morphology at 5 times MIC after 5 mins by transmission electron microscopy analysis; format: functional
[15] = test system: Listeria monocytogenes; assay: Antimicrobial activity against Listeria monocytogenes assessed as induction of K+ efflux assessed per mg of cell dry weight at MIC after 30 mins by spectrometry analysis; format: functional
[16] = Hemolytic activity in erythrocytes (unknown origin) after 1 hr; format: ADME, cell-based, Erythrocyte
[17] = test system: Escherichia coli; assay: Antimicrobial activity against Escherichia coli MC4100 assessed as uniform electron density of cytoplasm and formation of mesosome-like structure at 5 times MIC after 5 mins by transmission electron microscopy analysis; format: functional, organism-based
[18] = test system: Listeria ivanovii; assay: Antimicrobial activity against Listeria ivanovii HPB20 assessed as loss of integrity at 5 times MIC after 5 mins by transmission electron microscopy analysis; format: functional
[19] = test system: Listeria monocytogenes; assay: Antimicrobial activity against Listeria monocytogenes assessed as induction of K+ efflux assessed per mg of cell dry weight at 2 to 5 times MIC after 30 mins by spectrometry analysis; format: functional
[20] = test system: Listeria monocytogenes; assay: Antimicrobial activity against Listeria monocytogenes LMA 1045 after 24 hrs by polystyrene micro-assay; format: functional; details: LMA 1045, 24 h
[21] = test system: Listeria ivanovii; assay: Antimicrobial activity against Listeria ivanovii HPB20 assessed as condensed and localized intracellular content at 5 times MIC after 5 mins by transmission electron microscopy analysis; format: functional, cell-based

| Compound | MIC [3] | MIC [4] | MIC [5] | MIC [6] | Activity [7] | MIC [9] | MIC [10] | MIC [11] | MIC [12] | Activity [13] | Activity [14] | HC50 at 1 h [16] | Activity [18] | MIC [20] | also measured |
| --- | --- | --- | --- | --- | --- | --- | --- | --- | --- | --- | --- | --- | --- | --- | --- |
| C=C(NC(=O)[C@@H](NC(=O)[C@H](Cc1cnc[nH]1)NC(=O)[C@@H](NC(=O)[C@H](CO)NC(=O)[C@@H]1CSC(C)[C@@H]2NC(=O)[C@H](C)NC(=O)[C@@H](NC(=O)N(CCCCN)C(=O)[C@H](CCCCN)NC(=O)[C@@H](CCSC)NC(=O)[C@H](CC(N)=O)NC(=O)[C@@H]3CSC(C)[C@H](NC(=O)[C@H](CCCCN)NC(=O)[C@@H]4CSC(C)[C@H](NC(=O)[C@@H]5CSC[C@H](NC(=O)/C(=C/C)NC(=O)[C@@H](N)[C@@H](C)CC)C(=O)N[C@@H](CC(C)C)C(=O)NC(=C)C(=O)N[C@@H](CC(C)C)C(=O)N5)C(=O)N5CCC[C@H]5C(=O)NCC(=O)N4)C(=O)NCC(=O)N[C@@H](C)C(=O)N[C@@H](CC(C)C)C(=O)N[C@H](CCSC)C(=O)NCC(=O)N3)C(C)SC[C@H](NC2=O)C(=O)N[C@@H](Cc2cnc[nH]2)C(=O)N1)[C@@H](C)CC)C(C)C)C(=O)N[C@@H](CCCCN)C(=O)O (stereo not given in full) |  |  |  |  |  |  |  |  |  |  |  |  |  |  | Activity [1]: 361.79 nmol; Activity [2]: 635.96 nmol |
| CCC(=C(c1ccc(OCCCN(C)C)cc1)c1ccc(OCCCN(C)C)cc1)c1ccccc1.O=C(O)CC(O)(CC(=O)O)C(=O)O | 31 µM | > 5000 µM | 31 µM | 80 µM | Active | 50 µM | 1250 µM | 50 µM | 25 µM | Active | Active | 67.1 µM | Active | 62 µM | Activity [8]: 68%; Activity [15]: 183.74 nmol; Activity [17]: Active; Activity [19]: 344 nmol |
| CN(C)CCCOc1ccc(C(=C2CCc3ccccc32)c2ccc(OCCCN(C)C)cc2)cc1 | 31 µM (≈ 15 µg/mL) | 2500 µM (≈ 1210 µg/mL) | 31 µM (≈ 15 µg/mL) | 40 µM (≈ 19.4 µg/mL) | Active | 100 µM (≈ 48.5 µg/mL) | 2500 µM (≈ 1210 µg/mL) | 100 µM (≈ 48.5 µg/mL) | 25 µM (≈ 12.1 µg/mL) | Active | Active | 68.6 µM | Active | 62 µM (≈ 30.1 µg/mL) | Activity [21]: Active |
